Data as given in paper PMC11237035, “Glutathione determines chronic myeloid leukemia vulnerability to an inhibitor of CMPK and TMPK” (Communications Biology, 2024).
Values joined by “and” are separate entries in the source; they are usually repeats but may differ in a detail not shown here. Equal values may be shown once. Read-outs that look alike come from different tables or passages of the source.

Assays:
T315I-Bcr-Abl-32D cells [1] = assay: CCK-8 cell viability assay, T315I-Bcr-Abl-32D cells; type: cell-based, mouse; conditions: for viability (0 = 100): T315I-Bcr-Abl, single replicates
K562 cells = assay: CCK-8 cell viability assay, K562 cells; type: cell-based, human; conditions: for cell viability (Figure 7d): K562, relative to 0 = 100, per replicate
Procedure: After 3 days, cells were analyzed by viability assays.

untransformed 32D cells = assay: Western blot of tyrosine phosphorylation, untransformed 32D cells; type: cell-based, mouse; conditions: untransformed 32D cells, JMF4073 at indicated concentrations, Western blot
WT-Bcr-Abl-32D cells = assay: Western blot of tyrosine phosphorylation and Bcr-Abl downstream signaling, WT-Bcr-Abl-32D cells; type: cell-based, mouse; conditions: WT-Bcr-Abl-32D cells, JMF4073 at indicated concentrations, Western blot
Text: (§1) Supplementary Figure 1. Bcr-Abl-activated downstream signaling in WT- and
(§2) The comparison of Bcr-Abl downstream signaling (Akt, mTorC1, and Stat5) in WT- […]

T315I-Bcr-Abl-32D cells [2] = assay: Western blot of tyrosine phosphorylation and Bcr-Abl downstream signaling, T315I-Bcr-Abl-32D cells; type: cell-based, mouse; conditions: T315I-Bcr-Abl-32D cells, JMF4073 at indicated concentrations, Western blot
Text: as §1, §2

hTMPK = biological target: T1, hTMPK (Homo sapiens, UniProt P23919); assay: biochemical
T1 sequence (P23919 1-212): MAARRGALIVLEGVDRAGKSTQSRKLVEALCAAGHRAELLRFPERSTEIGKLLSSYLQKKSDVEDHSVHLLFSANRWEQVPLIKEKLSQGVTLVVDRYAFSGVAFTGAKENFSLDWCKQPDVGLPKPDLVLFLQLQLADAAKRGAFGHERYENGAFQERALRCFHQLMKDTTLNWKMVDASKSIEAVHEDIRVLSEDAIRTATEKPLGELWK
Procedure: Activity assay was measured using the spectrophotometric method by coupling ADP formation to NADH oxidation catalyzed by pyruvate kinase and lactate dehydrogenase as described previously[20]. Each reaction contained 0.4 μg TMPK or 0.3 μg CMPK was incubated at 25 °C followed by using Tecan Spark 10 microplate reader to detect the change in NADH measurement at 340 nm absorption according to the manufacturer’s instructions.

TCCS cells = assay: CCK-8 cell viability assay, TCCS cells; conditions: for cell viability (Figure 7d) / cell viability (Figure 7g): TCCS, per replicate; for cell viability (Figure 7d): relative to 0 = 100; for cell viability (Figure 7g): NT, NT 0 μM = 100
Procedure: (§3) Cells were seeded at the density of 1 × 10^3 cells/well in 96-well microplate. After 3 days, cell viability was determined using the CCK-8 cell viability. The viability was measured by using Tecan Spark 10 microplate reader at 450 nm according to the manufacturer’s instructions.

KOPM28 cells = assay: CCK-8 cell viability assay, KOPM28 cells; conditions: for cell viability (Figure 7g): NT, NT 0 μM = 100, per replicate
Procedure: as §3

[3] = tested on: WT-Bcr-Abl-32D cells in C3H/HeNCrNarl mice; assay: In vivo therapy of WT-Bcr-Abl-32D CML mice; conditions: WT-Bcr-Abl-32D mice
Text: Data are represented as means ± S.D., n = 3 biological replicates. e C3H/HeNCrNarl mice were intravenously injected with 5 × 10^5 cells of WT-Bcr-Abl-32D cell. […] Asterisks denote *p < 0.05, **p < 0.01, ***p < 0.001, or ****p < 0.0001 from unpaired two-tailed Student’s t-test or Log-rank (Mantel–Cox) test.
Female C3H/HeNCrNarl mice were used at 6–8 weeks of age (National Laboratory Animal Center, Taiwan).
Mouse CML induction and in vivo therapy
Female C3H/HeNCrNarl mice were used at 6-8 weeks of age (National
Laboratory Animal Center, Taiwan). WT-Bcr-Abl-32D-EGFP+ cells (5 × 105)
suspended in 200 μL of HBSS were injected into each mouse through the tail vein. After
were monitored for peripheral blood (PB) and counted by Taiwan Mouse Clinic-
National Phenotyping Center, National Research Program for Genomic Medicine
(NSC). For T315I-Bcr-Abl CML mice, T315I-Bcr-Abl-32D-EGFP+ cells (1×106)
suspended in 200 μL of HBSS were tail-vein-injected. After 7 days of transplantation,
(§4) For monitoring CML progress, mice blood was
(§5) collected in anticoagulation tubes by submandibular blood collection, followed by
(§6) lysing red blood cells with RBC lysis buffer (Invitrogen). After washing, the remaining
(§7) cells were suspended in 500 μL of HBSS and subjected to flow cytometry analysis
(FACScalibur, BD Bioscience) with CellQuest software. The number of EGFP+ cells

[4] = tested on: T315I-Bcr-Abl-32D cells in C3H/HeNCrNarl mice; conditions: for survival of leukemia mice: T315I-Bcr-Abl-32D mice, vs vehicle
Procedure: Asterisks denote *p < 0.05, **p < 0.01, ***p < 0.001, or ****p < 0.0001 from unpaired two-tailed Student’s t-test or Log-rank (Mantel–Cox) test.
T315I-Bcr-Abl-transformed and untransformed 32D cells were treated with UK-5099 (25 μM) for 16 h. […] Data are represented as means ± S.D., n > 3 biological replicates.
The animal studies were approved by the biosafety committee at National Taiwan University and conformed to the national guidelines and regulations (IACUC # 20201063). Female C3H/HeNCrNarl mice were used at 6–8 weeks of age (National Laboratory Animal Center, Taiwan).
Mouse CML induction and in vivo therapy
The animal studies were approved by the biosafety committee at National Taiwan
University and conformed to the national guidelines and regulations (IACUC #
20201063). Female C3H/HeNCrNarl mice were used at 6-8 weeks of age (National
Laboratory Animal Center, Taiwan).
suspended in 200 μL of HBSS were injected into each mouse through the tail vein.
suspended in 200 μL of HBSS were tail-vein-injected.
as §4, §5, §6, §7
(FACScalibur, BD Bioscience) with CellQuest software.

CC(C)(C)OC(=O)N1CCN(C(=O)Cn2sc3ccc(F)cc3c2=O)CC1 [JMF4073, Tert-butyl 4-(2-(5-fluoro-3-oxobenzo[d]isothiazol-2(3H)-yl)acetyl) piperazine-1-carboxylate]
viability (0 = 100) (T315I-Bcr-Abl-32D cells [1]; JMF4073 2 mM (so in the source)): 12 and 38 and 34.0126 | viability (0 = 100) (T315I-Bcr-Abl-32D cells [1]; JMF4073 5 mM (so in the source)): 19 and 10 and 9.067 | JMF4073 sensitivity with BSO co-treatment (T315I-Bcr-Abl-32D cells [1]; T315I-Bcr-Abl-32D cells, BSO 12.5 μM): markedly increased | JMF4073 sensitivity with UK-5099 treatment (T315I-Bcr-Abl-32D cells [1]; T315I-Bcr-Abl-32D cells, UK-5099 25 μM): sensitized | cell viability (Figure 7d) (K562 cells; JMF4073 0.625 (mM as printed)): 114.189 and 84.0418 and 97.6144 | cell viability (Figure 7d) (K562 cells; JMF4073 1.25 (mM as printed)): 86.4343 and 75.2342 and 85.0231 | cell viability (Figure 7d) (K562 cells; JMF4073 2.5 (mM as printed)): 42.6408 and 39.7616 and 38.8404 | cell viability (Figure 7d) (K562 cells; JMF4073 5 (mM as printed)): 4.788 and 0.7438 and 0.1275 | JMF4073 sensitivity (K562 cells; K562 cells, 3 days, compared among K562, TCCS, KOPM28): higher | levels of overall tyrosine phosphorylation (untransformed 32D cells): unaffected | levels of overall tyrosine phosphorylation (WT-Bcr-Abl-32D cells): unaffected | levels of overall tyrosine phosphorylation (T315I-Bcr-Abl-32D cells [2]): unaffected | IC50 (hTMPK): 160 nM and ~170 nM | sensitivity to combinatory treatment of JMF4073 and UK-5099 (TCCS cells; TCCS cells): insensitive | JMF4073 sensitivity (TCCS cells; TCCS cells, 3 days, compared among K562, TCCS, KOPM28): less | JMF4073 sensitivity after erastin pretreatment (TCCS cells; TCCS cells, erastin 0.5 μM, 16 h): markedly increased | cell viability (Figure 7d) (TCCS cells; JMF4073 0.625): 120.422 and 103.29 and 164.136 | cell viability (Figure 7d) (TCCS cells; JMF4073 1.25): 102.037 and 133.359 | cell viability (Figure 7d) (TCCS cells; JMF4073 2.5): 39.3238 and 117.065 | cell viability (Figure 7d) (TCCS cells; JMF4073 5): 61.7646 and -1.852 and 14.6452 | cell viability (Figure 7g) (TCCS cells; JMF 4073 0.625 μM): 120.422 and 103.29 and 164.136 | cell viability (Figure 7g) (TCCS cells; JMF 4073 1.25 μM): 102.037 and 133.359 | cell viability (Figure 7g) (TCCS cells; JMF 4073 2.5 μM): 39.3238 and 117.065 | cell viability (Figure 7g) (TCCS cells; JMF 4073 5 μM): 61.7646 and -1.852 and 14.6452 | cell viability (Figure 7g) (KOPM28 cells; KOPM28, JMF 4073 1.25 μM): 106.704 and 151.464 | cell viability (Figure 7g) (KOPM28 cells; KOPM28, JMF 4073 2.5 μM): 112.966 and 158.237 | cell viability (Figure 7g) (KOPM28 cells; KOPM28, JMF 4073 5 μM): 142.547 and 122.577 and 85.9406 | cell viability (Figure 7g) (KOPM28 cells; KOPM28, JMF 4073 10 μM): 0 and -1.445 and 2.083 | sensitivity to combinatory treatment of JMF4073 and UK-5099 (KOPM28 cells; KOPM28 cells): insensitive | JMF4073 sensitivity (KOPM28 cells; KOPM28 cells, 3 days, compared among K562, TCCS, KOPM28): insensitive | JMF4073 sensitivity after erastin pretreatment (KOPM28 cells; KOPM28 cells, erastin 0.5 μM, 16 h): markedly increased | WBC (White blood cell/Leukocyte count) ([3]; IP JMF4073, Day 26, submandibular blood, single mice): brought down | survival of leukemia mice ([3]; JMF4073 5 mg/kg i.p. daily for 14 days, vs vehicle): prolonged the survival | Spleen weight ([4]; Figure 6h, individual mice N1-N3): 0.26 g and 0.29 g and 0.58 g | spleen size ([4]; JMF4073 5 mg/kg + UK-5099 10 mg/kg i.p.): marked decreases | population of T315I-Bcr-Abl-32D/EGFP+ cells in blood ([4]; JMF4073 5 mg/kg + UK-5099 10 mg/kg i.p., flow cytometry, day 30 after transplantation): marked decreases | survival of leukemia mice ([4]; JMF4073 5 mg/kg + UK-5099 10 mg/kg i.p. daily for 14 days): prolonged the survival | survival of leukemia mice ([4]; JMF4073 5 mg/kg i.p. daily for 14 days): not significantly prolonged
